Experimental findings from patent US7534814B2, “Mutilin derivatives and their use as antibacterials” (Nabriva Therapeutics AG, priority 1999, dated 2009) are described below.

Converted amounts (≈) assume the structure as drawn. Read-outs that look alike come from different tables or passages of the source. A value given as a limit tells only on which side of the number the result lay.

Common to all, as to type: cell-based
Assay [1] has as its system Staphylococcus aureus MSSA. The experiment in a line: MIC in Agar Dilution Test or Micro Dilution Test (NCCLS M7-A4). Particulars: examples tested in the form of a hydrochloride. The source says: (§1) For example, the active compounds of the present invention show antimicrobial, e.g. antibacterial activity against gram negative bacterias, such as Escherichia coli; and against gram positive bacteria, such as Staphylococcus aureus, Streptococcus pyogenes, Streptococcus pneumonlae, Mycoplasms, Chlamydia and obligatory anaerobes, e.g. Bacteroides fragilis; in vitro in the Agar Dilution Test or Microdilution Test according to National Commitee for Clinical Laboratory Standards (NCCLS) 1997, Document M7-A4 Vol.17, No. 2: “Methods for dilution Antimicrobial Susceptibility Tests for Bacteria that Grow Aerobically—Fourth Edition, Approved Standard”; and e.g. in vivo in systemic infections in mice.
(§2) The active compounds of the invention show an surprising overall activity spectrum. For example, it has been determined that the active compounds of the present invention show surprising activity in vitro against Enterococcus faecium, including vancomycin-resistant strains; against Staphylococcus aureus including methicillin sensitive (MSSA) and methicdllin-resistant (MRSA) strains; and against Streptococcus pneumoniae including penicillin-resistant strains; e.g. in the Agar Dilution Test or in the Micro Dilution Test in Mueller-Hinton agar or Mueller-Hinton broth with or without supplements according to the approved standard reference methods of the National Committee for Clinical Laboratory Standards (NCCLS), Document M7-A4 for aerobic bacteria.
In general terms: In agar dilution the substance is mixed into plates at graded concentrations.

The subject of assay [2] is Staphylococcus aureus MRSA. Described as above.
Description: as §1, §2

Assay [3] deals with penicillin-resistant Streptococcus pneumoniae. The assay is described as above.
Description: as §1, §2

For assay [4], the system named is Enterococcus faecalis strain ATCC 29212. The experiment in a line: MIC in Agar Dilution Test or Microdilution Test. Particulars: examples tested in the form of an hydrochloride.
Description: as §1

On to `C=C[C@]1(C)C[C@@H](OC(=O)CSc2cccc(NC(=O)[C@H]3CCCCN3)c2)[C@]2(C)[C@H](C)CC[C@]3(CCC(=O)[C@H]32)[C@@H](C)[C@@H]1O` [Example 1], for which the MIC (in general, the lowest concentration that inhibits growth of the organism) was “ca. 0.025 μg/ml” in assay [1] and ≤ 0.0125 µg/mL in assay [2].

As to `C=C[C@]1(C)C[C@@H](OC(=O)CSc2cccc(N)c2)[C@]2(C)[C@H](C)CC[C@]3(CCC(=O)[C@H]32)[C@@H](C)[C@@H]1O` [Example 52, 14-O-[(3-Amino-phenylsulfanyl)acetyl]mutilin], in assay [1], the MIC result was “ca. 0.025 μg/ml”. For `CC[C@H]1OC(=O)[C@H](C)[C@@H](O[C@H]2C[C@@](C)(OC)[C@@H](O)[C@H](C)O2)[C@H](C)[C@@H](O[C@@H]2O[C@H](C)C[C@H](N(C)C)[C@H]2O)[C@](C)(O)C[C@@H](C)CN(C)[C@H](C)[C@@H](O)[C@]1(C)O` [azithromycin], the MIC in assay [1] (read-out: MIC) was ~1.6 µg/mL (≈ 2.14 µM); in assay [3] it was > 2.56 µg/mL; in assay [2] (read-out: MIC), > 25.6 µg/mL. Take `CC[C@H]1OC(=O)[C@H](C)[C@@H](O[C@H]2C[C@@](C)(OC)[C@@H](O)[C@H](C)O2)[C@H](C)[C@@H](O[C@@H]2O[C@H](C)C[C@H](N(C)C)[C@H]2O)[C@](C)(O)C[C@@H](C)C(=O)[C@H](C)[C@@H](O)[C@]1(C)O` [erythromycin A]: the MIC entry in assay [4] is on record as “ca. 1.6 μg/ml”.
